# Measurements taken from patent US8192962B2, “Processes for detecting toxic substances” (Daikin Industries, Ltd., priority 2001, dated 2012).
# System: Metabolism protein genes
# Assay: DNA chip mRNA expression in yeast, metabolism protein genes (Table 7)
# Type: cell-based, Saccharomyces cerevisiae S288C
# Method in brief: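 Values are treated/untreated fluorescence ratios from a whole-genome yeast DNA chip hybridized over 12 hours at 65° C with Cy3- or Cy5-labelled cDNA from poly(A) mRNA. Log-phase S288C yeast in YPD at 25° C had received a single toxic chemical for two hours, dosed to slow growth without killing.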
smiles,measurement,setting,value
"Oc1cc(Cl)c(Cl)cc1Cl [(6), 2,4,5-trichlorophenol]",The level of expressed mRNA in the presence of chemical substance/The level of expressed mRNA in the absence of chemical substance,yeast gene YKL035W,1.2
same,level of expressed mRNA in the presence/in the absence of chemical substance,yeast gene YKL060C,1.3
same,The level of expressed mRNA in the presence of chemical substance/The level of expressed mRNA in the absence of chemical substance,yeast gene YKL091C,2.2
same,The level of expressed mRNA in the presence of chemical substance/The level of expressed mRNA in the absence of chemical substance,yeast gene YKL104C,0.9
same,level of expressed mRNA in the presence/in the absence of chemical substance,yeast gene YKL148C,0.5
same,The level of expressed mRNA in the presence of chemical substance/The level of expressed mRNA in the absence of chemical substance,yeast gene YKL152C,1.6
same,level of expressed mRNA in the presence/in the absence of chemical substance,yeast gene YKL157W,1.5
same,The level of expressed mRNA in the presence of chemical substance/The level of expressed mRNA in the absence of chemical substance,yeast gene YKL213C,1.0
same,The level of expressed mRNA in the presence of chemical substance/The level of expressed mRNA in the absence of chemical substance,yeast gene YKL215C,2.1
same,The level of expressed mRNA in the presence of chemical substance/The level of expressed mRNA in the absence of chemical substance,yeast gene YKL218C,3.6
same,level of expressed mRNA in the presence/in the absence of chemical substance,yeast gene YKR034W,0.9
same,The level of expressed mRNA in the presence of chemical substance/The level of expressed mRNA in the absence of chemical substance,yeast gene YKR039W,2.8
same,The level of expressed mRNA in the presence of chemical substance/The level of expressed mRNA in the absence of chemical substance,yeast gene YLL058W,1.4
same,level of expressed mRNA in the presence/in the absence of chemical substance,yeast gene YLR006C,0.9
same,level of expressed mRNA in the presence/in the absence of chemical substance,yeast gene YLR044C,1.5
same,level of expressed mRNA in the presence/in the absence of chemical substance,yeast gene YLR056W,1.2
same,level of expressed mRNA in the presence/in the absence of chemical substance,yeast gene YLR058C,0.9
same,level of expressed mRNA in the presence/in the absence of chemical substance,yeast gene YLR081W,0.9
same,level of expressed mRNA in the presence/in the absence of chemical substance,yeast gene YLR089C,1.5
same,The level of expressed mRNA in the presence of chemical substance/The level of expressed mRNA in the absence of chemical substance,yeast gene YLR142W,3.1
same,The level of expressed mRNA in the presence of chemical substance/The level of expressed mRNA in the absence of chemical substance,yeast gene YLR180W,1.2
same,The level of expressed mRNA in the presence of chemical substance/The level of expressed mRNA in the absence of chemical substance,yeast gene YLR273C,1.2
same,level of expressed mRNA in the presence/in the absence of chemical substance,yeast gene YLR284C,0.9
same,The level of expressed mRNA in the presence of chemical substance/The level of expressed mRNA in the absence of chemical substance,yeast gene YLR299W,0.9
same,The level of expressed mRNA in the presence of chemical substance/The level of expressed mRNA in the absence of chemical substance,yeast gene YLR300W,1.1
same,level of expressed mRNA in the presence/in the absence of chemical substance,yeast gene YLR304C,1.9
same,The level of expressed mRNA in the presence of chemical substance/The level of expressed mRNA in the absence of chemical substance,yeast gene YLR307W,1.2
same,The level of expressed mRNA in the presence of chemical substance/The level of expressed mRNA in the absence of chemical substance,yeast gene YLR348C,1.9
same,level of expressed mRNA in the presence/in the absence of chemical substance,yeast gene YLR354C,1.5
same,level of expressed mRNA in the presence/in the absence of chemical substance,yeast gene YLR372W,0.5
same,level of expressed mRNA in the presence/in the absence of chemical substance,yeast gene YML022W,0.8
same,The level of expressed mRNA in the presence of chemical substance/The level of expressed mRNA in the absence of chemical substance,yeast gene YML054C,1.8
same,The level of expressed mRNA in the presence of chemical substance/The level of expressed mRNA in the absence of chemical substance,yeast gene YML070W,2.2
same,The level of expressed mRNA in the presence of chemical substance/The level of expressed mRNA in the absence of chemical substance,yeast gene YML100W,2.8
same,The level of expressed mRNA in the presence of chemical substance/The level of expressed mRNA in the absence of chemical substance,yeast gene YML110C,2.6
same,The level of expressed mRNA in the presence of chemical substance/The level of expressed mRNA in the absence of chemical substance,yeast gene YMR008C,1.7
same,level of expressed mRNA in the presence/in the absence of chemical substance,yeast gene YMR011W,0.6
same,level of expressed mRNA in the presence/in the absence of chemical substance,yeast gene YMR015C,1.3
same,The level of expressed mRNA in the presence of chemical substance/The level of expressed mRNA in the absence of chemical substance,yeast gene YMR020W,1.6
same,level of expressed mRNA in the presence/in the absence of chemical substance,yeast gene YMR083W,1.8
same,The level of expressed mRNA in the presence of chemical substance/The level of expressed mRNA in the absence of chemical substance,yeast gene YMR105C,2.8
same,The level of expressed mRNA in the presence of chemical substance/The level of expressed mRNA in the absence of chemical substance,yeast gene YMR189W,1.9
same,level of expressed mRNA in the presence/in the absence of chemical substance,yeast gene YMR205C,1.2
same,The level of expressed mRNA in the presence of chemical substance/The level of expressed mRNA in the absence of chemical substance,yeast gene YMR250W,4.5
same,level of expressed mRNA in the presence/in the absence of chemical substance,yeast gene YMR261C,0.6
same,The level of expressed mRNA in the presence of chemical substance/The level of expressed mRNA in the absence of chemical substance,yeast gene YMR271C,4.2
same,The level of expressed mRNA in the presence of chemical substance/The level of expressed mRNA in the absence of chemical substance,yeast gene YMR272C,2.6
same,The level of expressed mRNA in the presence of chemical substance/The level of expressed mRNA in the absence of chemical substance,yeast gene YMR296C,0.4
same,level of expressed mRNA in the presence/in the absence of chemical substance,yeast gene YMR323W,0.4
same,The level of expressed mRNA in the presence of chemical substance/The level of expressed mRNA in the absence of chemical substance,yeast gene YNL012W,1.7
same,level of expressed mRNA in the presence/in the absence of chemical substance,yeast gene YNL025C,0.5
same,The level of expressed mRNA in the presence of chemical substance/The level of expressed mRNA in the absence of chemical substance,yeast gene YNL037C,2.8
same,The level of expressed mRNA in the presence of chemical substance/The level of expressed mRNA in the absence of chemical substance,yeast gene YNL045W,2.2
same,The level of expressed mRNA in the presence of chemical substance/The level of expressed mRNA in the absence of chemical substance,yeast gene YNL104C,0.8
same,The level of expressed mRNA in the presence of chemical substance/The level of expressed mRNA in the absence of chemical substance,yeast gene YNL106C,1.0
same,The level of expressed mRNA in the presence of chemical substance/The level of expressed mRNA in the absence of chemical substance,yeast gene YNL169C,1.4
same,level of expressed mRNA in the presence/in the absence of chemical substance,yeast gene YNL192W,0.6
same,The level of expressed mRNA in the presence of chemical substance/The level of expressed mRNA in the absence of chemical substance,yeast gene YNL231C,1.8
same,The level of expressed mRNA in the presence of chemical substance/The level of expressed mRNA in the absence of chemical substance,yeast gene YNL322C,1.1
same,The level of expressed mRNA in the presence of chemical substance/The level of expressed mRNA in the absence of chemical substance,yeast gene YNL331C,1.8
same,The level of expressed mRNA in the presence of chemical substance/The level of expressed mRNA in the absence of chemical substance,yeast gene YNL332W,1.1
same,The level of expressed mRNA in the presence of chemical substance/The level of expressed mRNA in the absence of chemical substance,yeast gene YNR019W,1.3
same,The level of expressed mRNA in the presence of chemical substance/The level of expressed mRNA in the absence of chemical substance,yeast gene YNR033W,1.6
same,The level of expressed mRNA in the presence of chemical substance/The level of expressed mRNA in the absence of chemical substance,yeast gene YNR059W,0.8
same,The level of expressed mRNA in the presence of chemical substance/The level of expressed mRNA in the absence of chemical substance,yeast gene YOL058W,0.8
same,level of expressed mRNA in the presence/in the absence of chemical substance,yeast gene YOL086C,1.7
same,level of expressed mRNA in the presence/in the absence of chemical substance,yeast gene YOL108C,0.9
same,level of expressed mRNA in the presence/in the absence of chemical substance,yeast gene YOL116W,0.7
same,The level of expressed mRNA in the presence of chemical substance/The level of expressed mRNA in the absence of chemical substance,yeast gene YOL126C,1.5
same,The level of expressed mRNA in the presence of chemical substance/The level of expressed mRNA in the absence of chemical substance,yeast gene YOL143C,3.5
same,The level of expressed mRNA in the presence of chemical substance/The level of expressed mRNA in the absence of chemical substance,yeast gene YOL153C,1.9
same,level of expressed mRNA in the presence/in the absence of chemical substance,yeast gene YOL156W,1.2
same,The level of expressed mRNA in the presence of chemical substance/The level of expressed mRNA in the absence of chemical substance,yeast gene YOL165C,1.7
same,level of expressed mRNA in the presence/in the absence of chemical substance,yeast gene YOR002W,1.1
same,level of expressed mRNA in the presence/in the absence of chemical substance,yeast gene YOR085W,0.6
same,The level of expressed mRNA in the presence of chemical substance/The level of expressed mRNA in the absence of chemical substance,yeast gene YOR099W,0.9
same,level of expressed mRNA in the presence/in the absence of chemical substance,yeast gene YOR103C,1.0
same,level of expressed mRNA in the presence/in the absence of chemical substance,yeast gene YOR108W,1.6
same,level of expressed mRNA in the presence/in the absence of chemical substance,yeast gene YOR128C,1.0
same,The level of expressed mRNA in the presence of chemical substance/The level of expressed mRNA in the absence of chemical substance,yeast gene YOR130C,1.6
same,level of expressed mRNA in the presence/in the absence of chemical substance,yeast gene YOR142W,1.6
same,level of expressed mRNA in the presence/in the absence of chemical substance,yeast gene YOR176W,0.9
same,level of expressed mRNA in the presence/in the absence of chemical substance,yeast gene YOR178C,2.7
same,level of expressed mRNA in the presence/in the absence of chemical substance,yeast gene YOR251C,0.9
same,The level of expressed mRNA in the presence of chemical substance/The level of expressed mRNA in the absence of chemical substance,yeast gene YOR336W,1.7
same,The level of expressed mRNA in the presence of chemical substance/The level of expressed mRNA in the absence of chemical substance,yeast gene YOR347C,0.9
same,level of expressed mRNA in the presence/in the absence of chemical substance,yeast gene YOR348C,0.7
same,The level of expressed mRNA in the presence of chemical substance/The level of expressed mRNA in the absence of chemical substance,yeast gene YPL017C,1.5
same,level of expressed mRNA in the presence/in the absence of chemical substance,yeast gene YPL028W,1.2
same,level of expressed mRNA in the presence/in the absence of chemical substance,yeast gene YPL057C,0.6
same,level of expressed mRNA in the presence/in the absence of chemical substance,yeast gene YPL135W,1.3
same,level of expressed mRNA in the presence/in the absence of chemical substance,yeast gene YPL148C,0.6
same,level of expressed mRNA in the presence/in the absence of chemical substance,yeast gene YPR113W,1.1
same,The level of expressed mRNA in the presence of chemical substance/The level of expressed mRNA in the absence of chemical substance,yeast gene YPR160W,4.5
same,level of expressed mRNA in the presence/in the absence of chemical substance,yeast gene YPR165W,1.8
same,The level of expressed mRNA in the presence of chemical substance/The level of expressed mRNA in the absence of chemical substance,yeast gene YPR167C,2.6
same,level of expressed mRNA in the presence/in the absence of chemical substance,yeast gene YPR183W,1.2
